Values after ≈ are worked out from the molar mass of the structure shown. Active and inactive are the calls of the source. The calls are words filed in the database; no cut-off is given here.
Legend:
[1] = Lipophilicity, log D of the compound at pH 7.4; assay type: physicochemical; settings: buffer
P2X purinoceptor 7 [2] = biological target: T1, P2X purinoceptor 7 (Homo sapiens, UniProt Q99572); assay: Inhibition of human P2X7 receptor by ethidium bromide release assay
T1 sequence (Q99572 whole entry): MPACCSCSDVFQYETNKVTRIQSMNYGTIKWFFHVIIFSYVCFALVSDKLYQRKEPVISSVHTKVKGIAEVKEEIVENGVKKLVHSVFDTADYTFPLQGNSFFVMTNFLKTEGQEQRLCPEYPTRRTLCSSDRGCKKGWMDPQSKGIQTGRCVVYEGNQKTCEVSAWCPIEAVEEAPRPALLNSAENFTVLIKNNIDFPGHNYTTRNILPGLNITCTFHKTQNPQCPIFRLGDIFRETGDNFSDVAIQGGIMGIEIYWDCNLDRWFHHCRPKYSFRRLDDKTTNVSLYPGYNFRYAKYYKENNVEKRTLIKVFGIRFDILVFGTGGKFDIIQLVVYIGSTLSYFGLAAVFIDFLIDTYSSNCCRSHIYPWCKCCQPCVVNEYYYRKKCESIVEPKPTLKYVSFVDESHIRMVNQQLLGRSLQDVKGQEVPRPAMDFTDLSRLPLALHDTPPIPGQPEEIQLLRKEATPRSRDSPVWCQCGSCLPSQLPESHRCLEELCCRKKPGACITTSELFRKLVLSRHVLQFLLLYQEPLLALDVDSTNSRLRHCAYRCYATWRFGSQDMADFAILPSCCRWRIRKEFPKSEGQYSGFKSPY

P2X purinoceptor 7 [3] = biological target: T2, P2X purinoceptor 7 (Rattus norvegicus, UniProt Q64663); assay: Inhibition of rat P2X7 receptor by ethidium bromide release assay
T2 sequence (Q64663 whole entry): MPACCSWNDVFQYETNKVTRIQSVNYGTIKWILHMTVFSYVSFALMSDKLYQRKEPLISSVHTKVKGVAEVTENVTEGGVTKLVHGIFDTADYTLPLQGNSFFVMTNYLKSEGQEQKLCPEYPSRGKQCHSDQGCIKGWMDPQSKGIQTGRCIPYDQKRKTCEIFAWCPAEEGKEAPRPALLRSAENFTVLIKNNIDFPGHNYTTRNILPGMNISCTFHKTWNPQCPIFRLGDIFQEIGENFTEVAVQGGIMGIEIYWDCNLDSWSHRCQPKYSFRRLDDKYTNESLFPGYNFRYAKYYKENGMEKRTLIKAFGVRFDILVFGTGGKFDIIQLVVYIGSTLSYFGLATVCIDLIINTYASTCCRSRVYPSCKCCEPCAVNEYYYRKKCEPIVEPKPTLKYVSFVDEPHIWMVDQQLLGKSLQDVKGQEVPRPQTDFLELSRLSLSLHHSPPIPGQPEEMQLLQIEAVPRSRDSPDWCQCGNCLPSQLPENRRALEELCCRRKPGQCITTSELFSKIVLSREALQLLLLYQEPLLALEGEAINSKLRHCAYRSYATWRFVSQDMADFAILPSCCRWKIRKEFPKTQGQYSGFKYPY

Liver microsomes [4] = assay: Intrinsic clearance in rat liver microsome; assay type: ADME
Rattus norvegicus [5] = assay: Antiinflammatory activity in rat assessed as inhibition of FCA-induced hypersensitivity at 20 and 50 mg/kg, po bid for 5 days; assay type: functional, organism-based; design: dose 50 mg/kg
Rattus norvegicus [6] = assay: Antiallodynic activity in rat chronic constriction injury model assessed as nerve injury-induced allodynia at 20 mg/kg, po bid measured post dose on day 1 of 8 days treatment
[7] = Tmax in rat at 3 mg/kg, po for 1 hrs; assay type: ADME, organism-based; design: dose 3 mg/kg, route oral; settings: in vivo
[8] = Solubility of the compound; assay type: physicochemical
Rattus norvegicus [9] = assay: Antiallodynic activity in rat chronic constriction injury model assessed as nerve injury-induced allodynia at 20 mg/kg, po bid measured post dose on day 1 of 8 days treatment; assay type: functional, organism-based; design: dose 20 mg/kg
Plasma = assay: Drug level in rat plasma at 50 mg/kg, po; assay type: ADME, organism-based; design: dose 50 mg/kg, route oral; settings: in vivo, read-out: Drug uptake
[10] = Oral bioavailability in rat at 3 mg/kg for 1 hrs; assay type: ADME, organism-based; settings: in vivo
[11] = Drug level in plasma of rat chronic constriction injury model at 20 mg/kg, po bid for 8 days measured on last day; assay type: ADME, organism-based; design: dose 20 mg/kg, route oral
[12] = Half life in rat at 1 mg/kg, iv for 1 hrs; assay type: ADME, organism-based; design: dose 1 mg/kg, route intravenous; settings: in vivo
Liver microsomes [13] = assay: Intrinsic clearance in human liver microsome; assay type: ADME
Rattus norvegicus [14] = assay: AUC in rat at 3 mg/kg, po for 1 hrs; assay type: ADME, organism-based, Plasma; design: dose 3 mg/kg, route oral; settings: in vivo
[15] = Volume of distribution at steady state in rat at 1 mg/kg, iv for 1 hrs; assay type: ADME, organism-based; design: dose 1 mg/kg, route intravenous; settings: in vivo, read-out: Vdss
[16] = Cmax in rat at 3 mg/kg, po for 1 hrs; assay type: ADME, organism-based; design: dose 3 mg/kg, route oral; settings: in vivo
[17] = Drug level in brain of rat chronic constriction injury model at 20 mg/kg, po bid for 8 days measured on last day; assay type: ADME, organism-based; design: dose 20 mg/kg, route oral
[18] = Blood clearance in rat at 1 mg/kg, iv for 1 hrs; assay type: ADME, organism-based; design: dose 1 mg/kg, route intravenous
Brain = assay: Drug level in rat brain at 50 mg/kg, po; assay type: ADME, organism-based; design: dose 50 mg/kg, route oral; settings: in vivo, read-out: Drug uptake

Molecule CC(C)N1C(=O)CCC1C(=O)NCc1ccc(F)cc1Cl (stereo not drawn) has a logD [1] of 2.6, an IC50 (P2X purinoceptor 7 [2]) of 316 nM and an IC50 (P2X purinoceptor 7 [3]) greater than 10000 nM.

For O=C(NCc1ccc(F)cc1Cl)[C@@H]1CCC(=O)N1C1CCCC1, the IC50 (P2X purinoceptor 7 [2]) was 501 nM.

For CCN1C(=O)CC[C@H]1C(=O)NCc1cccc(C(F)(F)F)c1, the IC50 (P2X purinoceptor 7 [2]) was 100 nM.

In the case of CCN1C(=O)CC[C@H]1C(=O)NCC1CCCCC1, the IC50 (P2X purinoceptor 7 [2]) is reported as less than 1000 nM.

Work on CC(=O)N1CCC[C@H]1C(=O)NCc1ccc(F)cc1Cl yielded an IC50 (P2X purinoceptor 7 [2]) of 100 nM.

CCN1C(=O)CC[C@H]1C(=O)NCc1ccccc1 gave an IC50 (P2X purinoceptor 7 [2]) of less than 1000 nM.

CCN1C(=O)CC[C@H]1C(=O)NCc1ccccc1OC showed an IC50 (P2X purinoceptor 7 [2]) of less than 1000 nM.

CC(C)CN1C(=O)CC[C@H]1C(=O)NCc1ccc(F)cc1Cl gave an IC50 (P2X purinoceptor 7 [2]) of 398 nM.

In the case of CCN1CCC[C@H]1C(=O)NCc1ccc(F)cc1Cl, the IC50 (P2X purinoceptor 7 [2]) is reported as less than 1000 nM.

In the case of CN(C(=O)c1cc(Cl)c(=O)n(Cc2c(Cl)cccc2Cl)c1)c1ccccc1, the logD [1] is reported as 4.4, the IC50 (P2X purinoceptor 7 [2]) is reported as 126 nM and the IC50 (P2X purinoceptor 7 [3]) is reported as 316 nM. The CL (Liver microsomes [4]) was greater than 50 mL/min/g.

For O=C(NCc1ccc(F)cc1Cl)[C@@H]1CCC(=O)N1C1CCC1, the CL (Liver microsomes [4]) was 2.3 mL/min/g.

For O=C1CC[C@@H](C(=O)NCc2ccc(F)cc2Cl)N1, the IC50 (P2X purinoceptor 7 [2]) was less than 1000 nM.

For CCN1C(=O)CC[C@@H]1C(=O)NCc1ccc(F)cc1Cl, the IC50 (P2X purinoceptor 7 [2]) was 158 nM.

Molecule CCCN1C(=O)CC[C@H]1C(=O)NCc1ccc(F)cc1Cl has an IC50 (P2X purinoceptor 7 [2]) of 158 nM.

In the case of Cc1ccc(-c2cc(C(F)(F)F)nn2-c2ccc(S(N)(=O)=O)cc2)cc1, the Activity (Rattus norvegicus [5]) is reported as “inactive”.

For Cc1n[nH]c(C)c1CC(=O)NCc1ccc(Cl)cc1Cl, the logD [1] was 2.7 and the CL (Liver microsomes [4]) was 1.3 mL/min/g.

Work on CCN1C(=O)CC[C@H]1C(=O)NCc1ccccc1C(F)(F)F yielded an IC50 (P2X purinoceptor 7 [2]) of 631 nM.

In the case of CN1C(=O)CC[C@H]1C(=O)NCc1cccc(C(F)(F)F)c1Cl [GSK1482160], the Activity (Rattus norvegicus [6]) is reported as “Active”, the Tmax [7] is reported as 1 h and the solubility [8] is reported as 970 µg/mL (≈ 2900 µM). The Activity (Rattus norvegicus [9]) was “Active”, the concentration (Plasma) was 12.9 µM and the logD [1] was 1.9. For the same molecule, the bioavailability [10] was 65%, the concentration at 192 h [11] was 5.91 µM and the half-life [12] was 1.5 h. The IC50 (P2X purinoceptor 7 [2]) was 3.16 nM, the CL (Liver microsomes [13]) was less than 0.5 mL/min/g and the AUC (Rattus norvegicus [14]) was 73 kg·min/L. For the same molecule, the Vd [15] was 1.1 L/kg, the IC50 (P2X purinoceptor 7 [3]) was 316 nM and the Cmax [16] was 2.45 µM. It also gave a concentration at 192 h [17] of 3.36 µM, a clearance [18] of 9 mL/min/kg and a concentration (Brain) of 26.7 µM.

For CN(Cc1ccc(Cl)cc1Cl)C(=O)[C@@H]1CCC(=O)N1C, the IC50 (P2X purinoceptor 7 [2]) was less than 1000 nM.

Cc1nn(-c2ccccc2)c(C)c1CC(=O)NCc1ccc(F)cc1Cl gave a logD [1] of 3.4 and a CL (Liver microsomes [4]) of 46 mL/min/g.

Molecule CCN1C(=O)CC[C@H]1C(=O)NCc1ccc(F)cc1Cl has an IC50 (P2X purinoceptor 7 [2]) of 31.6 nM and a CL (Liver microsomes [4]) of less than 0.5 mL/min/g.

Molecule CC(C)N1C(=O)CC[C@H]1C(=O)NCc1ccc(F)cc1Cl has an IC50 (P2X purinoceptor 7 [2]) of 100 nM and an IC50 (P2X purinoceptor 7 [3]) of 1580 nM.

With CCN1C(=O)CC[C@H]1C(=O)NCc1ccccc1Cl the IC50 (P2X purinoceptor 7 [2]) was 631 nM.

For CCN1C(=O)CC[C@H]1C(=O)NCC12CC3CC(CC(C3)C1)C2, the IC50 (P2X purinoceptor 7 [2]) was 79.4 nM.

In the case of CN1C(=O)CC[C@H]1C(=O)NCc1ccc(F)cc1Cl, the IC50 (P2X purinoceptor 7 [2]) is reported as 100 nM.

CCN1C(=O)CC[C@H]1C(=O)NCc1ccc(Cl)cc1 showed an IC50 (P2X purinoceptor 7 [2]) of 631 nM.

Work on O=C(NCc1ccc(F)cc1Cl)[C@@H]1CCC(=O)N1c1ccccc1 yielded an IC50 (P2X purinoceptor 7 [2]) of 794 nM.

— ChEMBL document CHEMBL1221272, “Discovery and structure-activity relationships of a series of pyroglutamic acid amide antagonists of the P2X7 receptor” (Bioorg Med Chem Lett, 2010)
